Data on 20 molecules can be found in patent US10758534B2 (Vertex Pharmaceuticals Incorporated, priority 2014, dated 2020).

Structures are written as SMILES.

T1 sequence (P13569 with tags, fused parts or gaps DEL508-508): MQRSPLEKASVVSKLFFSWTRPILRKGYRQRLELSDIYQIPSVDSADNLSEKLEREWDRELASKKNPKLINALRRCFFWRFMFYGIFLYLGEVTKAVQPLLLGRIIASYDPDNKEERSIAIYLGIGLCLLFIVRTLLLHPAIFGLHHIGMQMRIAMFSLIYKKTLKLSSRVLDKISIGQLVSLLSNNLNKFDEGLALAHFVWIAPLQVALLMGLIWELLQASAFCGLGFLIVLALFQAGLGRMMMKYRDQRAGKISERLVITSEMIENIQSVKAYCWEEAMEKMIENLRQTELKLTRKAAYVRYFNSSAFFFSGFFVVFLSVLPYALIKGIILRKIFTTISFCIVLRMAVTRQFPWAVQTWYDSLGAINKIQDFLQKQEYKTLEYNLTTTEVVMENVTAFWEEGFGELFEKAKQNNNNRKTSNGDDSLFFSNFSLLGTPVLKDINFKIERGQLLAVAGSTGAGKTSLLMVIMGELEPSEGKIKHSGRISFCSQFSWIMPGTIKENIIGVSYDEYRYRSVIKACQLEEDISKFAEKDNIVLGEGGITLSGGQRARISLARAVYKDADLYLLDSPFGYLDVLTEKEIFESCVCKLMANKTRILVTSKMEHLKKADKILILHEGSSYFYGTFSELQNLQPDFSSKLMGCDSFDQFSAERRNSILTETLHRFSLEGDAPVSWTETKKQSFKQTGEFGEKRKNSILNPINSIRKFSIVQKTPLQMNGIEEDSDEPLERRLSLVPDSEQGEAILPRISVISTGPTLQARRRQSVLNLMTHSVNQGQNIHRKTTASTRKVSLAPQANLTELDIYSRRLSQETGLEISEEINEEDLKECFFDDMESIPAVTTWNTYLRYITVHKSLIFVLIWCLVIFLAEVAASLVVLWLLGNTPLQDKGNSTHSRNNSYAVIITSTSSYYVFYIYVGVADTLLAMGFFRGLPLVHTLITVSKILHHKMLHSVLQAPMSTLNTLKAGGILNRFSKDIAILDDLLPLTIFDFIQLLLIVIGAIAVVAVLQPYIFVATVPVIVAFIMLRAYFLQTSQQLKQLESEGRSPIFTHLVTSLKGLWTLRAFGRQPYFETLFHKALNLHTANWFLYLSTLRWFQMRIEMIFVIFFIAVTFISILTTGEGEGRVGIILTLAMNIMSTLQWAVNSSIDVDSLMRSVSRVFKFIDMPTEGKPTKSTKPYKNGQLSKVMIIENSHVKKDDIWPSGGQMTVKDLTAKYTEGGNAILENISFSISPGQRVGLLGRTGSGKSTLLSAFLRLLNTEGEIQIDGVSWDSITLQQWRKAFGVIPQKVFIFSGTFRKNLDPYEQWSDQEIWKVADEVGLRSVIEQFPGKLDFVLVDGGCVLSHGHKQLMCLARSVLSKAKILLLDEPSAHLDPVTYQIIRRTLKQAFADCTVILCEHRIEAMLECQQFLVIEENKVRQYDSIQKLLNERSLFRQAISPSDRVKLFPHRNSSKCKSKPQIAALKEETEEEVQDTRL

This assay has as its target T1, F508del (Homo sapiens, UniProt P13569, DEL508-508).
T1 construct: expressed in transfected cells
As to the kind of experiment: Protocol 1: membrane potential optical assay (FLIPR III, voltage sensing dye), identification of potentiator compounds. Type of assay: cell-based. Conditions: Table 3, compounds of Table 1. From the text: Membrane Potential Optical Methods for Assaying F508del Modulation Properties of Compounds
The assay utilizes fluorescent voltage sensing dyes to measure changes in membrane potential using a fluorescent plate reader (e.g., FLIPR III, Molecular Devices, Inc.) as a readout for increase in functional F508del in NIH 3T3 cells. The driving force for the response is the creation of a chloride ion gradient in conjunction with channel activation by a single liquid addition step after the cells have previously been treated with compounds and subsequently loaded with a voltage sensing dye.
Identification of Potentiator Compounds
To identify potentiators of F508del, a double-addition HTS assay format was developed. This HTS assay utilizes fluorescent voltage sensing dyes to measure changes in membrane potential on the FLIPR III as a measurement for increase in gating (conductance) of F508del in temperature-corrected F508del NIH 3T3 cells. The driving force for the response is a Cl^− ion gradient in conjunction with channel activation with forskolin in a single liquid addition step using a fluorescent plate reader such as FLIPR III after the cells have previously been treated with potentiator compounds (or DMSO vehicle control) and subsequently loaded with a redistribution dye.
Bath Solution #1: (in mM) NaCl 160, KCl 4.5, CaCl2 2, MgCl2 1, HEPES 10, pH 7.4 with NaOH.
Chloride-free bath solution: Chloride salts in Bath Solution #1 (above) are substituted with gluconate salts.
NIH3T3 mouse fibroblasts stably expressing F508del are used for optical measurements of membrane potential. The cells are maintained at 37° C. in 5% CO2 and 90% humidity in Dulbecco's modified Eagle's medium supplemented with 2 mM glutamine, 10% fetal bovine serum, 1×NEAA, β-ME, 1× pen/strep, and 25 mM HEPES in 175 cm^2 culture flasks. For all optical assays, the cells were seeded at ˜20,000/well in 384-well matrigel-coated plates and cultured for 2 hrs at 37° C. before culturing at 27° C. for 24 hrs. for the potentiator assay. For the correction assays, the cells are cultured at 27° C. or 37° C. with and without compounds for 16-24 hours.
For the molecule `COc1cc(OC)cc(-c2ccc(C(=O)NS(=O)(=O)c3cccc(N)n3)c(N3C[C@@H](C)CC3(C)C)n2)c1` [Compound 1471, N-[(6-amino-2-pyridyl)sulfonyl]-6-(3,5-dimethoxyphenyl)-2-[(4S)-2,2,4-trimethylpyrrolidin-1-yl]pyridine-3-carboxamide], the EC30 entry is on record as “+++ (“+++” means <3 uM)”.

Turning to `C[C@@H]1CN(c2nc(-c3cnc4[nH]ccc4c3)ccc2C(=O)NS(=O)(=O)c2cccnc2N)C(C)(C)C1` [Compound 1714, N-[(2-amino-3-pyridyl)sulfonyl]-6-(1H-pyrrolo[2,3-b]pyridin-5-yl)-2-[(4S)-2,2,4-trimethylpyrrolidin-1-yl]pyridine-3-carboxamide], the EC30 result was “++ (“++” means between 3 uM and 10 uM)”.

As for `Cc1cc(C)c(Oc2nc(-c3cccc(O)c3)ccc2C(=O)NS(=O)(=O)c2cccc(N)n2)c(C)c1` [Compound 908, N-[(6-amino-2-pyridyl)sulfonyl]-6-(3-hydroxyphenyl)-2-(2,4,6-trimethylphenoxy)pyridine-3-carboxamide], the EC30 entry is “+ (“+” means greater than 10 uM)”.

As for `CC(C)COc1cc(F)cc(-c2ccc(C(=O)NS(=O)(=O)c3cccc(N)n3)c(N3CCC(=O)C3(C)C)n2)c1` [Compound 1189, N-[(6-amino-2-pyridyl)sulfonyl]-2-(2,2-dimethyl-3-oxo-pyrrolidin-1-yl)-6-(3-fluoro-5-isobutoxy-phenyl)pyridine-3-carboxamide], the EC30 entry is given as “+++ (“+++” means <3 uM)”.

Regarding `Cc1cc(C)c(Oc2nc(C3=CCC(C(C)C)CC3)ccc2C(=O)NS(=O)(=O)c2cccc(N)n2)c(C)c1` (centres unmarked) [Compound 1630, N-[(6-amino-2-pyridyl)sulfonyl]-6-(4-isopropylcyclohexen-1-yl)-2-(2,4,6-trimethylphenoxy)pyridine-3-carboxamide], the EC30 entry is listed as “+++ (“+++” means <3 uM)”.

As to `Cc1cc(-c2ccc(C(=O)NS(=O)(=O)c3cccnc3N)c(N3C[C@@H](C)CC3(C)C)n2)cnc1OCCOC(C)C` [Compound 1695, N-[(2-amino-3-pyridyl)sulfonyl]-6-[6-(2-isopropoxyethoxy)-5-methyl-3-pyridyl]-2-[(4S)-2,2,4-trimethylpyrrolidin-1-yl]pyridine-3-carboxamide], the EC30 result was “+++ (“+++” means <3 uM)”.

Consider `Cc1cc(C)c(Oc2nc(-c3ccc4[nH]ncc4c3)ccc2C(=O)NS(=O)(=O)c2cccc(N)n2)c(C)c1` [Compound 856, N-[(6-amino-2-pyridyl)sulfonyl]-6-(1H-indazol-5-yl)-2-(2,4,6-trimethylphenoxy)pyridine-3-carboxamide], for which the EC30 result is “++ (“++” means between 3 uM and 10 uM)”.

For `CC1CCN(c2nc3c(cc2C(=O)NS(=O)(=O)c2ccn[nH]2)CCCC3(C)C)CC1` [Compound 800, 8,8-dimethyl-2-(4-methyl-1-piperidyl)-N-(1H-pyrazol-5-ylsulfonyl)-6,7-dihydro-5H-quinoline-3-carboxamide], the EC30 entry is “++ (“++” means between 3 uM and 10 uM)”.

Take `CC1CN(c2ncccc2C(=O)NS(=O)(=O)c2cccc(Nc3ccccc3Cl)n2)C(C)(C)C1` (centres unmarked) [Compound 1872, N—[[6-(2-chloroanilino)-2-pyridyl]sulfonyl]-2-(2,2,4-trimethylpyrrolidin-1-yl)pyridine-3-carboxamide]: the EC30 result is reported as “+++ (“+++” means <3 uM)”.

Regarding `COc1c(F)cc(-c2ccc(C(=O)NS(=O)(=O)c3ccc[nH]c3=O)c(N3C[C@@H](C)CC3(C)C)n2)cc1F` [Compound 1801, 6-(3,5-difluoro-4-methoxy-phenyl)-N-[(2-oxo-1H-pyridin-3-yl)sulfonyl]-2-[(4S)-2,2,4-trimethylpyrrolidin-1-yl]pyridine-3-carboxamide], the EC30 entry was “+++ (“+++” means <3 uM)”.

For the molecule `C[C@@H]1CN(c2nc(-c3cc(F)c(F)cc3F)ccc2C(=O)NS(=O)(=O)c2ccc[nH]c2=O)C(C)(C)C1` [Compound 1981, N-[(2-oxo-1H-pyridin-3-yl)sulfonyl]-6-(2,4,5-trifluorophenyl)-2-[(4S)-2,2,4-trimethylpyrrolidin-1-yl]pyridine-3-carboxamide], the EC30 result is “+++ (“+++” means <3 uM)”.

As to `COC1CCCCC1Oc1nc(-c2cc(F)cc(OCC(C)C)c2)ccc1C(=O)NS(=O)(=O)c1cccc(N)n1` (centres unmarked) [Compound 1622, N-[(6-amino-2-pyridyl)sulfonyl]-6-(3-fluoro-5-isobutoxy-phenyl)-2-(2-methoxycyclohexoxy)pyridine-3-carboxamide], the EC30 entry was “+++ (“+++” means <3 uM)”.

With `Cc1cc(C)c(Oc2nc(-c3ccc(CN(C)C)cc3)ccc2C(=O)NS(=O)(=O)c2cccc(N)n2)c(C)c1` [Compound 962, N-[(6-amino-2-pyridyl)sulfonyl]-6-[4-(dimethylaminomethyl)phenyl]-2-(2,4,6-trimethylphenoxy)pyridine-3-carboxamide], the EC30 entry is “++ (“++” means between 3 uM and 10 uM)”.

For `COCCOCc1cccc(-c2cnc(N3CC(C)CC3(C)C)c(C(=O)NS(=O)(=O)c3cccc(N)n3)c2)c1` (centres unmarked) [Compound 1943, N-[(6-amino-2-pyridyl)sulfonyl]-5-[3-(2-methoxyethoxymethyl)phenyl]-2-(2,2,4-trimethylpyrrolidin-1-yl)pyridine-3-carboxamide], the EC30 entry was “++ (“++” means between 3 uM and 10 uM)”.

Regarding `Cc1cc(C)c(Oc2nc(C3=CCC4(CC3)OCCO4)ccc2C(=O)NS(=O)(=O)c2cccc(N)n2)c(C)c1` [Compound 1558, N-[(6-amino-2-pyridyl)sulfonyl]-6-(1,4-dioxaspiro[4.5]dec-8-en-8-yl)-2-(2,4,6-trimethylphenoxy)pyridine-3-carboxamide], the EC30 entry is “++ (“++” means between 3 uM and 10 uM)”.

In the case of `Cc1cc(C)c(Oc2nc(C3(C)CC3)ccc2C(=O)NS(=O)(=O)c2ccc[nH]c2=O)c(C)c1` [Compound 1226, 6-(1-methylcyclopropyl)-N-[(2-oxo-1H-pyridin-3-yl)sulfonyl]-2-(2,4,6-trimethylphenoxy)pyridine-3-carboxamide], the EC30 result was “+++ (“+++” means <3 uM)”.

For `CC(C)(C)c1ccc(C(=O)NS(=O)(=O)c2cccc(N)n2)c(N2CCC[C@@H](c3ccccc3)C2)n1` [Compound 1261, N-[(6-amino-2-pyridyl)sulfonyl]-6-tert-butyl-2-[(3S)-3-phenyl-1-piperidyl]pyridine-3-carboxamide], the EC30 entry was “+++ (“+++” means <3 uM)”.

Consider `Cc1cc(C)c(Oc2nc(-c3ccccn3)ccc2C(=O)NS(=O)(=O)c2cc[nH]n2)c(C)c1` [Compound 1353, N-(1H-pyrazol-3-ylsulfonyl)-6-(2-pyridyl)-2-(2,4,6-trimethylphenoxy)pyridine-3-carboxamide], for which the EC30 entry was “+ (“+” means greater than 10 uM)”.

For the molecule `CC(C)COc1cc(F)cc(-c2ccc(C(=O)NS(=O)(=O)c3ccn[nH]3)c(N3CCCC(C(F)(F)F)C3)n2)c1` (centres unmarked) [Compound 907, 6-(3-fluoro-5-isobutoxy-phenyl)-N-(1H-pyrazol-5-ylsulfonyl)-2-[3-(trifluoromethyl)-1-piperidyl]pyridine-3-carboxamide], the EC30 entry was “+++ (“+++” means <3 uM)”.

Take `CC1CN(c2ncc(-c3cc(Cl)cc(Cl)c3)cc2C(=O)NS(=O)(=O)c2cccc(N)n2)C(C)(C)C1` (centres unmarked) [Compound 1721, N-[(6-amino-2-pyridyl)sulfonyl]-5-(3,5-dichlorophenyl)-2-(2,2,4-trimethylpyrrolidin-1-yl)pyridine-3-carboxamide]: the EC30 entry was “+++ (“+++” means <3 uM)”.
